Measurements taken from patent US20250318532A1, “ASCAROSIDE COMBINATIONS” (Ascribe Bioscience Inc., priority 2022, published 2025).

System: Asian Soybean Rust (ASR)
Assay: Soybean field trial in Brazil, ascaroside with Chlorothalonil and APROACH POWER
Type: in vivo
Conditions: ascaroside alone, 250 mg/ac, foliar spray, relative to untreated controls

CC1OC(O[C@H](C)CCCCCCCCC(=O)O)C(O)CC1O (stereo partly shown) [ascr #18]
protection against Asian Soybean Rust: 20-40%
